Experimental data as given in patent EP0939649B1, “ADDITIVE, IN PARTICULAR IN THE FORM OF AN EMULSION CONTAINING A TRIVALENT METAL CATION AND VACCINE COMPOSITION CONTAINING SAME” (priority 1996, dated 1998).

Legend:
[1] = system: sérum albumine bovine (BSA); assay: Immunostimulant effect of adjuvants: IgG1/IgG2a antibody response in mice vaccinated subcutaneously with BSA antigen; assay type: in vivo, souris; settings: 21 days after vaccination, 100 µl s.c. per mouse, 10 µg BSA, salts at optimal concentration; for réponse lgG2a: represents cellular response; for réponse lgG1: represents humoral response
Method: Ces compositions thérapeutiques comprennent, à titre d'antigène de la sérum albumine bovine (BSA), Grade V, Sigma.
Ces compositions thérapeutiques (dose/souris) d'un volume de 100 µl mises en oeuvre comprenaient 10µg d'antigène et ont été injectées par voie sous-cutanée.
Les résultats ont été obtenus 21 jours après vaccination:
Les réponses IgG 1 sont représentatives de la réponse humorale,
Les réponses IgG 2a sont représentatives de la réponse cellulaire.

[2] = Local reactions (lesions and granulomas) at the injection site after subcutaneous injection in mice; assay type: in vivo, souris; settings: 8 days after s.c. injection, 1000 µl, 10 µg BSA
Method: On a injecté à différents lots comprenant chacun 5 souris, une composition thérapeutique d'un volume de 1000 µl, comprenant 10 µg d'antigène (BSA), par voie sous-cutanée. On a évalué les réactions locales (lésions et granulomes) 8 jours après injection.

Compound: CC(=O)[O-].CC(=O)[O-].[Al+3].[OH-] [C4H7AlO5 (forme insoluble), forme insoluble d'acétate d'Aluminium (C4H7AlO5)]
- réponse lgG2a [1]: <1000
- réponse lgG1 [1]: <1000

Compound: [OH][Al]([OH])[OH] [AlOH, hydroxyde d'Aluminium]
- réponse lgG2a [1]: <1000
- réponse lgG1 [1]: 8000

Compound: salicylate d'Aluminium
- réponse lgG2a [1]: 6000
- réponse lgG1 [1]: 48000

Compound: phosphate d'Aluminium [AlPO4]
- réponse lgG2a [1]: <1000
- réponse lgG1 [1]: <1000

Compound: CC(=O)[O-].[Al+3].[OH-].[OH-] [C2H5AlO4 (forme soluble), acétate d'Aluminium soluble (C2H5AlO4)]
- réponse lgG2a [1]: 8000
- réponse lgG1 [1]: 64000
- réactions locales (lésions et granulomes) ([2]; souris 1): 0
- réactions locales (lésions et granulomes) ([2]; souris 2): 0
- réactions locales (lésions et granulomes) ([2]; souris 3): 0
- réactions locales (lésions et granulomes) ([2]; souris 5): 0
